Experimental data taken from patent US8268792B2, “Use of an active ingredient combination that contains hydroxystilbene for preventing and/or treating diseases” (Carl-Friedrich Spaich, priority 2005, dated 2012).
Entries after “also recorded” stand apart in the source; their conditions may differ.

Key:
[1] = molecular target: T1, estrogen receptor β (ERβ) (Homo sapiens, UniProt Q92731); experiment: ERβ/mC3-luciferase transactivation in transfected HEC-1B cells; type: cell-based; conditions: HEC-1B cells cotransfected with hERβ and mC3-Luc, 24 hours incubation
T1 construct: expressed in transfected cells; host or cells: HEC-1B human endometrial adenocarcinoma cells (no endogenous ERα or ERβ)
T1 sequence (Q92731 whole entry): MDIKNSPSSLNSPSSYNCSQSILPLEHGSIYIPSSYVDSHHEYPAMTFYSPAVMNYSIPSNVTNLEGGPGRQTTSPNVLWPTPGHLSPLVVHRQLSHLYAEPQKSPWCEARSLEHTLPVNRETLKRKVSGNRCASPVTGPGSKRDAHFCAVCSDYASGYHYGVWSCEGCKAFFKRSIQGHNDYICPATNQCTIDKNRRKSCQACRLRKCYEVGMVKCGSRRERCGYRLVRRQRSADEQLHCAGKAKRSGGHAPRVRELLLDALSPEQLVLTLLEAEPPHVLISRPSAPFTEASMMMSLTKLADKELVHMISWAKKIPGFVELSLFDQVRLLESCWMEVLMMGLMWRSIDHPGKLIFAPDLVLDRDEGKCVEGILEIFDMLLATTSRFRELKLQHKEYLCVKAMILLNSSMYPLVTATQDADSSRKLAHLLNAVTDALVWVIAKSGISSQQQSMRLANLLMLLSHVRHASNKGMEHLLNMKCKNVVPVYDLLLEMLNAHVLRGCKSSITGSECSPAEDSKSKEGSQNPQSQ
Text: They therefore represent a possible way of investigating, in a human and endometrial context, ligand-dependent effects of substances on the transactivation mechanisms in relation to different receptor subtypes and different estrogen-responsive promoters.
An established ERβ/mC3-luciferase system was employed. For this purpose, HEC-1B cells were applied in 24-well plates with a density of 95 000 cells/well (in Dulbecco's modified Essential Medium (DMEM/F12)). The next day, they were cotransfected with an ERβ-containing construct (hERβ/pSG2) and a triple-ERE-containing promoter/luciferase construct (mC3-Luc/pGL2) (Hillisch et al. Dissecting physiological roles of estrogen receptor alpha and beta with potent selective ligands from structure-based design. Mol. Endocrinol. 2004 July; 18:1599-609). The transient transfection took place using DOTAP (N-[1-(2,3-dioleoyloxy)]-N,N,N-trimethylammoniumpropane methylsulfate, Roth) as described by the manufacturer.
After 24 hours, the cells were treated with appropriate concentrations of the substances or substance mixtures to be investigated. […] The incubation time was 24 hours. The cells were then lysed. The Luciferase Assay® kit (Promega) was used to determine the luciferase activity on the one hand, and the BCA® kit (Sigma) was used to determine the protein content on the other hand. […]

[2] = In vivo accumulation of ERr 731® ingredients in dog plasma (100, 300, 1000 mg/kg/day); design: species or system dog (pure-bred beagles); conditions: male and female dogs, ERr 731® 100, 300, 1000 mg/kg body weight/day, day 1
Procedure: (§1) These plasma samples were processed as follows: 500 μl of plasma were mixed with 25 μl of an internal standard working solution (2.5 ng/μl rhaponticin or rhapontigenin in methanol) and then mixed with 500 μl of isotonic NaCl solution and 2.5 ml of diethyl ether/butanol (9/1; v/v). After shaking and centrifugation (10 minutes at 4600 rpm), about 2 ml of the supernatant were removed and dried under a stream of nitrogen (at 60° C.). The pellet was taken up in 50 μl of methanol. Addition of 200 μl of distilled water was followed by renewed mixing, and 200 μl were pipetted into autosampler tubes (light-protected). 30 μl of the samples were injected for analysis into an LC-MS/MS system (PE Sciex API 3000). Chromatographic separation of the analytes took place on a Phenomenex Polymer X column with a gradient of an ammonium buffer solution and an acetonitrile/methanol mixture as mobile phase.
On day 1, 5 ml of blood were taken from the animals after 0, 0.5, 1, 2, 4, 8 and 24 hours in each case, and plasma was obtained. The analysis as described in section a) was carried out thereon in order to detect rhaponticin, deoxyrhaponticin, rhapontigenin, deoxyrhapontigenin, resveratrol and piceatannol in blood. The results of the test are depicted in FIG. 2a.

HL60 leukemia cells = conditions: cited from earlier work
[3] = tested on: AR-dependent gene expression; conditions: depending on the concentration; cited from earlier work
[4] = tested on: hormone-sensitive and -insensitive prostate cancer cells; conditions: pure resveratrol; cited from earlier work
[5] = tested on: transcription factor NF-κB; conditions: cited from earlier work
[6] = Dissolving tests with ERr 731® in ethanol and glycerol; type: physicochemical
[7] = tested on: bacteria of the human intestinal tract; conditions: cited from earlier work
[8] = Pharmacokinetics of ERr 731® ingredients in subject after oral intake (plasma, LC-MS/MS); type: in vivo, human; conditions: volunteer
Procedure: Subsequently, 10 ml of blood was taken at various times (as indicated in FIG. 1) and the plasma was obtained by centrifugation.
as §1

[9] = Test A: 200 mg of dry extract in 50 ml of glycerol R
[10] = Test B: 200 mg of dry extract in 50 ml of ethanol 30% R
[11] = Test C: 200 mg of dry extract in 50 ml of ethanol 50% R
[12] = Test D: 200 mg of dry extract in 50 ml of ethanol 86% R

Structure (SMILES) | accumulation (AUC 0-24 h) in dog plasma [2] | content found dissolved [6, 9] | dissolved, of theory [6, 9] | content found dissolved [6, 10] | dissolved, of theory [6, 10] | content found dissolved [6, 11] | dissolved, of theory [6, 11] | content found dissolved [6, 12] | dissolved, of theory [6, 12] | effect on transcription factor NF-κB [5] | further results
Oc1ccc(C=Cc2cc(O)cc(O)c2)cc1 [resveratrol] |  |  |  |  |  |  |  |  |  |  | apoptotic effect on HL60 leukemia cells (HL60 leukemia cells): apoptotic effect; AR-dependent gene expression [3]: an increase or inhibition of AR-dependent gene expression was observed; apoptotic effect on prostate cancer cells [4]: apoptotic effect
Oc1cc(O)cc(/C=C/c2ccc(O)c(O)c2)c1 [piceatannol] |  |  |  |  |  |  |  |  |  | inhibitory effect | 
COc1ccc(C=Cc2cc(O)cc(O[C@@H]3O[C@H](CO)[C@@H](O)[C@H](O)[C@H]3O)c2)cc1 [deoxyrhaponticin] | dose-dependent accumulation | 27.1% deoxyrhaponticin | (90.6% of theory) | 25.2% deoxyrhaponticin | (84.2% of theory) | 29.0% deoxyrhaponticin | (97.0% of theory) | 29.5% deoxyrhaponticin | (98.7% of theory) |  | 

Continued, in another order:

accumulation (AUC 0-24 h) in dog plasma [2] | content found dissolved [6, 9] | dissolved, of theory [6, 9] | content found dissolved [6, 10] | dissolved, of theory [6, 10] | content found dissolved [6, 11] | dissolved, of theory [6, 11] | content found dissolved [6, 12] | dissolved, of theory [6, 12] | Structure (SMILES) | effect on transcription factor NF-κB [5] | further results
undetectable |  |  |  |  |  |  |  |  | COc1ccc(C=Cc2cccc(O)c2)cc1O [deoxyrhapontigenin, 3′,5-Dihydroxy-4′-methoxystilbene] |  | activation of ERβ (relative luciferase activity vs DMSO control) [1]: activate the ERβ dose-dependently; also recorded: effective only at higher concentrations
dose-dependent accumulation | 55.1% rhaponticin | (89.0% of theory) | 52.2% rhaponticin | (84.3% of theory) | 58.8% rhaponticin | (95.0% of theory) | 59.8% rhaponticin | (96.6% of theory) | COc1ccc(C=Cc2cc(O)cc(O[C@@H]3O[C@H](CO)[C@@H](O)[C@H](O)[C@H]3O)c2)cc1O [rhaponticin, 3,3′,5-Trihydroxy-4′-methoxystilbene 3-O-β-D-glucopyranoside] | inactive | degradation by intestinal bacteria [7]: degraded by bacteria of the human intestinal tract to rhapontigenin; time of maximum in the blood ([8]; oral 40 mg ERr 731®): 3 to 4 h; detection in the blood (plasma) ([8]; oral 10 tablets = 40 mg ERr 731®): detected in the blood
